From US20220185811A1, “FGFR4 KINASE INHIBITOR AND PREPARATION METHOD THEREFOR AND USE THEREOF” (SHOUYAO HOLDINGS (BEIJING) CO., LTD., priority 2019, published 2022)
Structures can show the parent of a compound that is named as a salt.

Experiments:
FGFR-4 kinase = FGFR-4 kinase (Homo sapiens, UniProt P22455); assay: FGFR-4 kinase activity, homogeneous time-resolved fluorescence (HTRF) method; type: biochemical; settings: Table 1; ATP 25 μM, FGFR-4 kinase 1 nM; read-out: FGFR4 IC50
Protocol: 1. In vitro determination of the protein activity of compounds: The FGFR-4 kinase activity detection platform was established by the homogeneous time-resolved fluorescence (HTRF) method, and the activity of the compound was determined. 1000 μM compounds were subjected to 3-fold gradient dilution in 100% DMSO 11 times (12 concentrations in total), 4 μL diluent from each concentration was added to 96 μL of reaction buffer (50 mM HEPES, pH 7.4, 5 mM MnCl2, 0.1 mM NaVO3, 0.001% Tween-20, 0.01% BAS, 1 mM DTT) and mixed well, as a 4* compound (final concentration of 0.017 nM-1000 nM) for later use. 2 * FGFR-4 kinase (final concentration of 1 nM) was formulated using reaction buffer and 4*substrate (ATP+TK peptide) (TK peptide, HTRF® KinEASETM-TK, purchased from Cisbio, TK peptide, final concentration of 1 μM, ATP final concentration of 25 μ M) was formulated using reaction buffer. 2.5 μL of 4*compound and then 5 μL of 2 * FGFR-4 kinase were added to a 384-well plate (OptiPlate-384, purchased from PerkinElmer), the mixture was mixed by centrifugation, and 2.5 μL of 4 * substrate mixture was added to start the reaction (total reaction volume of 10 µL). The 384-well plate was placed in an incubator 23° C. and stirred for 60 min before the reaction was stopped by the addition of 5 μL of Eu^3+cryptate-labeled anti-phosphotyrosine antibody (TRF® KinEASE™-TK, purchased from Cisbio) and 5 μL of Streptavidin-XL-665 (HTRF® KinEASE™-TK, purchased from Cisbio). After incubation in the incubator for 1 h, fluorescence values (excitation at 320 nm, detecting emitted light at 665 nm and 620 nm, and a ratio of the two as enzyme activity) were read on Envision (purchased from PerkinElmer). The enzyme activity of each compound was measured at 12 concentrations, and the ICso value of the compound was calculated using GraphPad Prism 5.0 software.
The FGFR-4 kinase activity detection platform was established by homogeneous time-resolved fluorescence (HTRF) method, and the activity of compound was determined. 1000 μM compounds were subjected to 3-fold gradient dilution in 100% DMSO 11 times (12 concentrations in total), 4 μL of diluent from each concentration was added to 96 μL of reaction buffer (50 mM HEPES, pH 7.4, 5 mM MnCl2, 0.1 mM NaVO3, 0.001% Tween-20, 0.01% BAS, 1 mM DTT) and mixed well, as a 4* compound (final concentration of 0.017 nM-1000 nM) for later use. 2 * FGFR-4 kinase (final concentration of 1 nM) was formulated using reaction buffer and 4*substrate (ATP+TK peptide)(TK peptide, HTRF® KinEASE™-TK, purchased from Cisbio, TK peptide, final concentration of 1 μM, ATP final concentration of 25 μM) was formulated using reaction buffer. 2.5 μL of 4 * compound and then 5 μL of 2 * FGFR-4 kinase were added to a 384-well plate (OptiPlate-384, purchased from PerkinElmer), the mixture was mixed by centrifugation, and 2.5 μL of 4 * substrate mixture was added to start the reaction (total reaction volume of 10 μL). The 384-well plate was placed in an incubator 23° C. and stirred for 60 min before the reaction was stopped by the addition of 5 μL of Eu^3+cryptate-labled anti-phosphotyrosine antibody (TRF® KinEASE™-TK, purchased from Cisbio) and 5 μL of Streptavidin-XL-665 (HTRF® KinEASE™-TK, purchased from Cisbio). After incubation in the incubator for 1 h, fluorescence values (excitation at 320 nm, detecting emitted light at 665 nm and 620 nm, and a ratio of the two as enzyme activity) were read on Envision (purchased from PerkinElmer). The enzyme activity of each compopund was measured at 12 concentrations, and the ICso value of the compound was calculated using GraphPad prism 5.0 software.

[1] = test system: Human hepatoma cells Hep3b; assay: Cell proliferation inhibition, Cell Titer-Glo; type: cell-based; settings: Hep3B, 72 h, Table 1, 3 days incubation
Protocol: 2. Determination of cell proliferation activity of compounds:
Cell Titer-Glo ® detection reagent from Promega was used to establish the suspension cell proliferation inhibition screening method. Human hepatoma cells Hep3b (Xiehe Cell Research Center) were cultured in 25 cm^2 or 75 cm^2 plastic tissue culture flasks (Corning®) filled with MEM (Gibco®) medium supplemented with 10% fetal bovine serum (Hyclone®) under 37° C., 95% air and 5% CO2, and subcultured 2-3 times a week.
(§1) Hep3b cells were seeded in a 96-well cell culture plate (Corning®) at a density of 3×10^3 cells/well, […], and cultured under 37° C., 95% air, and 5% CO2. After 24 h the test compound was added: 10 mM compounds (dissolved in DMSO) were subjected to 3-fold gradient dilution in DMSO , […] of diluent from each concentration was added to […] of serum-free medium, and finally […] of compound diluted in the medium was added to the plate seeded with cells. The final concentration of DMSO in the cell culture medium was 0.1% and the final concentration of the test compound was 0.3 nM-[…]. The above cells were incubated for 3 days under 37° C.
After 3 days, the cell viability assay was performed by the Cell Titer-Glo (Promega) kit, and finally, the inhibitory concentration 50% of the compound on cell proliferation, i.e. the IC 50 value, was calculated by the GraphPad Prism 5.0 program.
as §1, with “DMSO,” for “DMSO ,”, “finally,” for “finally”, “of” for “of the”
After 3 days, the cell viability assay was performed by the Cell Titer-Glo (Promega) kit, and finally the inhibitory concentration 50% of the compound on cell proliferation, i.e. the IC 50 value, was calculated by the GraphPad Prism 5.0 program.

[2] = Pharmacokinetics in male SD rats, single intragastric administration; type: in vivo; settings: rat, po, 5 mg/kg suspension, plasma, first PK table
Protocol: (§2) Male SD rats (Beijing Vital River Laboratory Animal Technology Co., Ltd.) were divided into groups of 3 rats each. The rats were subjected to 5 mg/kg suspension of the test sample by single intragastric administration, respectively. Animals were fasted overnight prior to the experiment from 10 h before dosing to 4 h after dosing. Blood was collected 0.25, 0.5, 1, 2, 4, 6, 8, and 24 h after administration. After isoflurane anesthesia using a small animal anesthesia machine, 0.3 mL of whole blood samples was collected from the fundus venous plexus, placed in a heparin anticoagulant tube, and were centrifuged at 4° C., 4000 rpm for 5 min, plasma was transferred to the centrifuge tube, and stored at −80° C. until analysis. Samples in the plasma were extracted using protein precipitation and the extracts were analyzed by LC/MS/MS.
as §2, with “taken through” for “collected from”, “-80°” for “−80°”

Chain of FGFR-4 kinase (P22455 22-802): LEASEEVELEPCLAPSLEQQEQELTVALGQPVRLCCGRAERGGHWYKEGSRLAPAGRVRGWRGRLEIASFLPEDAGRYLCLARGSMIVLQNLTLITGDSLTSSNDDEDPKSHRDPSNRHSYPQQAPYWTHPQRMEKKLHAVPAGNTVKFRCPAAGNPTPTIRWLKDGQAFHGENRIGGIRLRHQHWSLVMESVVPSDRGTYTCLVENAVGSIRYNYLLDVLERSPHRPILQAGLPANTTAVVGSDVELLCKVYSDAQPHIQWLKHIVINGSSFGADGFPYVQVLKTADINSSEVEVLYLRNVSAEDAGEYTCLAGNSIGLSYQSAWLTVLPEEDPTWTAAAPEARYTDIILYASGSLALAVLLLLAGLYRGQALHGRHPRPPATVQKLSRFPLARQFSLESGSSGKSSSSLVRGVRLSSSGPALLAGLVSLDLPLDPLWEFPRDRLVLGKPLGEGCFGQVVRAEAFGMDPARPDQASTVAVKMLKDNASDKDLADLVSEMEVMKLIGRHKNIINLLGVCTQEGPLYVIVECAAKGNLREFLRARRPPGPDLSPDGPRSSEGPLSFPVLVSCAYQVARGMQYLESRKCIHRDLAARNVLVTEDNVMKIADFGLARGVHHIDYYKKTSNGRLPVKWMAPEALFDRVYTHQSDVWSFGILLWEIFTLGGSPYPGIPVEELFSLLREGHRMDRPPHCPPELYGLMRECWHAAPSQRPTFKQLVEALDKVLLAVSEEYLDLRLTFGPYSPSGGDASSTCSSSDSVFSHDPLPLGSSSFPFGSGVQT

SMILES | IC50 (FGFR-4 kinase) [nM] | IC50 [1] [nM] | further results
C=CC(=O)Nc1cc(-c2cc3c(cn2)cc(-c2c(Cl)c(OC)cc(OC)c2Cl)c2nccn23)c(OC)cc1N1CC2COCC2C1 (stereo not shown) [Example 4, N-(5-(4-(2,6-dichloro-3,5-dimethoxyphenyl)imidazo[1,2-a][1,6]naphthyridin-8-yl)-4-methoxy-2-(tetrahydro-1H-furo[3,4-c]pyrrol-5(3H)-yl)phenyl)acrylamide] | 2.25 | – | –
C=CC(=O)Nc1cc(-c2cc3c(cn2)cc(-c2c(Cl)c(OC)cc(OC)c2Cl)c2nccn23)c(OC)cc1N1CCOC2(CC2)C1 [Example 5, N-(5-(4-(2,6-dichloro-3,5-dimethoxyphenyl)imidazo[1,2-a][1,6]naphthyridin-8-yl)-4-methoxy-2-(4-oxa-7-azaspiro[2.5]octan-7-yl)phenyl)acrylamide] | – | 20.3 | –
C=CC(=O)Nc1cc(-c2cc3c(cn2)cc(-c2c(Cl)c(OC)cc(OC)c2Cl)c2nccn23)c(OC)cc1N1CC2CCC(C1)N2C(C)=O [Example 7, N-(2-(8-acetyl-3,8-diazabicyclo[3 .2.1]octan-3-yl)-5-(4-(2,6-dichloro-3,5-dimethoxyphenyl)imidazo[1,2-a][1,6]naphthyridin-8-yl)-4-methoxyphenyl)acrylamide] | 1.74 | 83.6 | –
C=CC(=O)Nc1cc(-c2cc3c(cn2)cc(-c2c(Cl)c(OC)cc(OC)c2Cl)c2nccn23)c(OC)cc1N1CCNC2(CC2)C1 [Example 9, N-(5-(4-(2,6-dichloro-3,5-dimethoxyphenyl)imidazo[1,2-a][1,6]naphthyridin-8-yl)-4-methoxy-2-(4,7-diazaspiro[2.5]octan-7-yl)phenyl)acrylamide trifluoroacetate] | 2.43 | 74.7 | –
C=CC(=O)Nc1cc(-c2cc3c(cn2)cc(-c2c(Cl)c(OC)cc(OC)c2Cl)c2nccn23)c(OC)cc1N1CCN(C(C)=O)C2(CC2)C1 [Example 11, N-(2-(4-acetyl-4,7-diazaspiro[2.5]octan-7-yl)-5-(4-(2,6-dichloro-3,5-dimethoxyphenyl)imidazo[1,2-a][1,6]naphthyridin-8-yl)-4-methoxyphenyl)acrylamide] | 3.82 | 68.3 | –
C=CC(=O)Nc1cc(-c2cc3c(cn2)cc(-c2c(Cl)c(OC)cc(OC)c2Cl)c2nccn23)c(OC)cc1N1CCC2(CC1)CCN(C1CC1)CC2 [Example 19, N-(2-(9-cyclopropyl-3,9-diazaspiro[5.5]undecan-3-yl)-5-(4-(2,6-dichloro-3,5-dimethoxyphenyl)imidazo[1,2-a][1,6]naphthyridin-8-yl)-4-methoxyphenyl)acrylamide] | 5.79 | 71.7 | –
C=CC(=O)Nc1cc(-c2cc3c(cn2)cc(-c2c(Cl)c(OC)cc(OC)c2Cl)c2nccn23)c(OC)cc1N1CCC2(COC2)C1 [Example 20, N-(5-(4-(2,6-dichloro-3,5-dimethoxyphenyl)imidazo[1,2-a][1,6]naphthyridin-8-yl)-4-methoxy-2-(2-oxa-6-azaspiro[3.4]octan-6-yl)phenyl)acrylamide] | 2.54 | – | –
C=CC(=O)Nc1cc(-c2cc3c(cn2)cc(-c2c(Cl)c(OC)cc(OC)c2Cl)c2nccn23)c(OC)cc1N1CCC2(CCN(C)C2)C1 (stereo not shown) [Example 22] | 5.61 | – | –
C=CC(=O)Nc1cc(-c2cc3c(cn2)cc(-c2c(Cl)c(OC)cc(OC)c2Cl)c2nccn23)c(OC)cc1N1CCN(C)C2(CC2)C1 [Example 23, N-(5-(4-(2,6-dichloro-3,5-dimethoxyphenyl)imidazo[1,2-a][1,6]naphthyridin-8-yl)-4-methoxy-2-(4-methyl-4,7-diazaspiro[2.5]octan-7-yl)phenyl)acrylamide] | 3.85 | 142 | –
CC#CC(=O)Nc1cc(-c2cc3c(cn2)cc(-c2c(Cl)c(OC)cc(OC)c2Cl)c2nccn23)c(OC)cc1N1C[C@@H]2C[C@H]1CO2 [Example 27, N-(2-((1S,4S)-2-oxa-5-azabicyclo[2.2.1]heptan-5-yl)-5-(4-(2,6-dichloro-3,5-dimethoxyphenyl)imidazo[1,2-a][1,6]naphthyridin-8-yl)-4-methoxyphenyl)but-2-ynamide] | – | – | AUC(0-inf) [2]: 1860 ng·h/mL; Cmax [2]: 452 ng/mL; Tmax [2]: 3.33 h; half-life ([2]; read-out: T1/2 (converted)): 2.73 h
C=CC(=O)Nc1cc(-c2cc3c(cn2)cc(-c2c(Cl)c(OC)cc(OC)c2Cl)c2nccn23)c(OC)cc1N1CCO[C@@H](C)C1 [Example 38, (S)-N-(5-(4-(2,6-dichloro-3,5-dimethoxyphenyl)imidazo[1,2-a][1,6]naphthyridin-8-yl)-4-methoxy-2-(2-methylmorpholino)phenyl)acrylamide] | 5.07 | – | –
